In ChEMBL document CHEMBL3885881, “DrugMatrix”:

Organism: Rattus norvegicus
Test: DrugMatrix - Regimen: Daily Repeat
Type: toxicity, organism-based, Sprague-Dawley
Design: regimen Daily Repeat, gender Male, age 6-8 weeks
Details: in vivo, sc, route subcutaneous, […]; for ABSOLUTE BASOPHIL / ABSOLUTE EOSINOPHIL / ABSOLUTE LYMPHOCYTE / ABSOLUTE MONOCYTE / BASOPHIL / EOSINOPHIL / ERYTHROCYTE COUNT / HEMATOCRIT / HEMOGLOBIN / LEUKOCYTE COUNT / LYMPHOCYTE / MEAN CORPUSCULAR HEMOGLOBIN / MEAN CORPUSCULAR HEMOGLOBIN CONCENTRATION / MEAN CORPUSCULAR VOLUME / MONOCYTE / NEUTROPHIL / NUCLEATED RED BLOOD CELLS / PLATELET COUNT: tissue Blood; for ALANINE AMINOTRANSFERASE / ALBUMIN / ASPARTATE AMINOTRANSFERASE / BLOOD UREA NITROGEN / CARBON DIOXIDE / CHLORIDE / CHOLESTEROL / CREATINE PHOSPHOKINASE / CREATININE / GLUCOSE / LACTATE DEHYDROGENASE / LIPASE / PHOSPHORUS / POTASSIUM / SODIUM / TOTAL BILIRUBIN / TOTAL PROTEIN / URIC ACID: tissue Plasma
[1] = 64 mg/kg, 120 h, dose level Low, time 5 day
[2] = 636 mg/kg, 72 h, dose level High, time 3 day
[3] = 636 mg/kg, 120 h, dose level High, time 5 day

Nc1ccc(S(N)(=O)=O)cc1 [SULFANILAMIDE]
ABSOLUTE BASOPHIL [1]: 0 CELLS/uL
ABSOLUTE EOSINOPHIL [1]: 0 CELLS/uL
ABSOLUTE LYMPHOCYTE [1]: 12536.33 CELLS/uL
ABSOLUTE MONOCYTE [1]: 42.67 CELLS/uL
BASOPHIL [1]: 0%
EOSINOPHIL [1]: 0%
ERYTHROCYTE COUNT [1]: 5.85 x10E6/uL
HEMATOCRIT [1]: 36.4%
HEMOGLOBIN [1]: 13.6 G/DL
LEUKOCYTE COUNT [1]: 13.6 x10E3/uL
LYMPHOCYTE [1]: 92.67%
MEAN CORPUSCULAR HEMOGLOBIN [1]: 23.33 pg
MEAN CORPUSCULAR HEMOGLOBIN CONCENTRATION [1]: 37.4 G/DL
MEAN CORPUSCULAR VOLUME [1]: 62.37 fL
MONOCYTE [1]: 0.33%
NEUTROPHIL [1]: 7%
NUCLEATED RED BLOOD CELLS [1]: 0.33 /100WBC
PLATELET COUNT [1]: 1318 x10E3/uL
ALANINE AMINOTRANSFERASE [1]: 52 u/L
ALBUMIN [1]: 4.03 G/DL
ASPARTATE AMINOTRANSFERASE [1]: 72 u/L
BLOOD UREA NITROGEN [1]: 15.67 mg/dL
CARBON DIOXIDE [1]: 26.33 mmol/L
CHLORIDE [1]: 105.33 MEQ/L
CHOLESTEROL [1]: 72.33 mg/dL
CREATINE PHOSPHOKINASE [1]: 187 u/L
CREATININE [1]: 0.27 mg/dL
GLUCOSE [1]: 156.33 mg/dL
LACTATE DEHYDROGENASE [1]: 102.33 u/L
LIPASE [1]: 11 u/L
PHOSPHORUS [1]: 12.07 mg/dL
POTASSIUM [1]: 7.26 MEQ/L
SODIUM [1]: 145.23 MEQ/L
TOTAL BILIRUBIN [1]: 0.23 mg/dL
TOTAL PROTEIN [1]: 5.9 G/DL
URIC ACID [1]: 1.87 mg/dL
ABSOLUTE BASOPHIL [2]: 0 CELLS/uL
ABSOLUTE EOSINOPHIL [2]: 116 CELLS/uL
ABSOLUTE LYMPHOCYTE [2]: 13223.33 CELLS/uL
ABSOLUTE MONOCYTE [2]: 374 CELLS/uL
BASOPHIL [2]: 0%
EOSINOPHIL [2]: 0.67%
ERYTHROCYTE COUNT [2]: 5.74 x10E6/uL
HEMATOCRIT [2]: 35.33%
HEMOGLOBIN [2]: 12.9 G/DL
LEUKOCYTE COUNT [2]: 15.8 x10E3/uL
LYMPHOCYTE [2]: 83.67%
MEAN CORPUSCULAR HEMOGLOBIN [2]: 22.47 pg
MEAN CORPUSCULAR HEMOGLOBIN CONCENTRATION [2]: 36.5 G/DL
MEAN CORPUSCULAR VOLUME [2]: 61.53 fL
MONOCYTE [2]: 2.33%
NEUTROPHIL [2]: 13.33%
NUCLEATED RED BLOOD CELLS [2]: 0 /100WBC
PLATELET COUNT [2]: 1297.33 x10E3/uL
ALANINE AMINOTRANSFERASE [2]: 71 u/L
ALBUMIN [2]: 3.97 G/DL
ASPARTATE AMINOTRANSFERASE [2]: 90.33 u/L
BLOOD UREA NITROGEN [2]: 18.67 mg/dL
CARBON DIOXIDE [2]: 25 mmol/L
CHLORIDE [2]: 103 MEQ/L
CHOLESTEROL [2]: 101.33 mg/dL
CREATINE PHOSPHOKINASE [2]: 400.67 u/L
CREATININE [2]: 0.16 mg/dL
GLUCOSE [2]: 181.67 mg/dL
LACTATE DEHYDROGENASE [2]: 100.67 u/L
LIPASE [2]: 10 u/L
PHOSPHORUS [2]: 12.37 mg/dL
POTASSIUM [2]: 5.81 MEQ/L
SODIUM [2]: 145.13 MEQ/L
TOTAL BILIRUBIN [2]: 0.2 mg/dL
TOTAL PROTEIN [2]: 5.67 G/DL
URIC ACID [2]: 2.4 mg/dL
ABSOLUTE BASOPHIL [3]: 0 CELLS/uL
ABSOLUTE EOSINOPHIL [3]: 129.33 CELLS/uL
ABSOLUTE LYMPHOCYTE [3]: 15741.33 CELLS/uL
ABSOLUTE MONOCYTE [3]: 353 CELLS/uL
BASOPHIL [3]: 0%
EOSINOPHIL [3]: 0.67%
ERYTHROCYTE COUNT [3]: 5.45 x10E6/uL
HEMATOCRIT [3]: 34.17%
HEMOGLOBIN [3]: 12.6 G/DL
LEUKOCYTE COUNT [3]: 18.03 x10E3/uL
LYMPHOCYTE [3]: 86.33%
MEAN CORPUSCULAR HEMOGLOBIN [3]: 23.13 pg
MEAN CORPUSCULAR HEMOGLOBIN CONCENTRATION [3]: 36.87 G/DL
MEAN CORPUSCULAR VOLUME [3]: 62.7 fL
MONOCYTE [3]: 2%
NEUTROPHIL [3]: 11%
NUCLEATED RED BLOOD CELLS [3]: 0 /100WBC
PLATELET COUNT [3]: 1550 x10E3/uL
ALANINE AMINOTRANSFERASE [3]: 66 u/L
ALBUMIN [3]: 3.8 G/DL
ASPARTATE AMINOTRANSFERASE [3]: 77 u/L
BLOOD UREA NITROGEN [3]: 21.67 mg/dL
CARBON DIOXIDE [3]: 26.67 mmol/L
CHLORIDE [3]: 105.33 MEQ/L
CHOLESTEROL [3]: 81.33 mg/dL
CREATINE PHOSPHOKINASE [3]: 230.33 u/L
CREATININE [3]: 0.16 mg/dL
GLUCOSE [3]: 165.33 mg/dL
LACTATE DEHYDROGENASE [3]: 107.33 u/L
LIPASE [3]: 9 u/L
PHOSPHORUS [3]: 12.53 mg/dL
POTASSIUM [3]: 7.05 MEQ/L
SODIUM [3]: 144.3 MEQ/L
TOTAL BILIRUBIN [3]: 0.2 mg/dL
TOTAL PROTEIN [3]: 5.63 G/DL
URIC ACID [3]: 1.93 mg/dL
